# Key:
# Sesamum indicum [1] = assay: Phytotoxicity against Sesamum indicum (sesame) plant assessed as yield at 0.84 kg/ha applied using mixing wheel cultivator (reference value: 333 kg/ha); type: organism-based; conditions: in vivo, other
# Amaranthus tuberculatus [2] = assay: Herbicidal activity against Amaranthus tuberculatus at 0.42 kg/ha applied using mixing wheel cultivator; type: functional
# Urochloa platyphylla [3] = assay: Herbicidal activity against Urochloa platyphylla at 1.68 kg/ha applied using mixing wheel cultivator; type: functional
# Sesamum indicum [4] = assay: Phytotoxicity against Sesamum indicum (sesame) plant assessed as sesame stand at 1.68 kg/ha applied using mixing wheel cultivator relative to control; type: organism-based; conditions: in vivo, other
# Amaranthus tuberculatus [5] = assay: Herbicidal activity against Amaranthus tuberculatus at 1.68 kg/ha applied using mixing wheel cultivator; type: functional
# Sesamum indicum [6] = assay: Phytotoxicity against Sesamum indicum (sesame) plant assessed as stunt in growth at 0.84 kg/ha applied using mixing wheel cultivator (reference value: 0%); type: organism-based; conditions: in vivo, other
# Sesamum indicum [7] = assay: Phytotoxicity against Sesamum indicum (sesame) plant assessed as yield at 0.42 kg/ha applied using mixing wheel cultivator (reference value: 333 kg/ha); type: organism-based; conditions: in vivo, other
# Sesamum indicum [8] = assay: Phytotoxicity against Sesamum indicum (sesame) plant assessed as sesame stand at 0.84 kg/ha applied using mixing wheel cultivator relative to control; type: organism-based; conditions: in vivo, other
# Sesamum indicum [9] = assay: Phytotoxicity against Sesamum indicum (sesame) plant assessed as stunt in growth at 0.42 kg/ha applied using mixing wheel cultivator (reference value: 0%); type: organism-based; conditions: in vivo, other
# Sesamum indicum [10] = assay: Phytotoxicity against Sesamum indicum (sesame) plant assessed as stunt in growth at 1.68 kg/ha applied using mixing wheel cultivator (reference value: 0%); type: organism-based; conditions: in vivo, other
# Sesamum indicum [11] = assay: Phytotoxicity against Sesamum indicum (sesame) plant assessed as sesame stand at 0.42 kg/ha applied using mixing wheel cultivator relative to control; type: organism-based; conditions: in vivo, other
# Sesamum indicum [12] = assay: Phytotoxicity against Sesamum indicum (sesame) plant assessed as yield at 1.68 kg/ha applied using mixing wheel cultivator (reference value: 333 kg/ha); type: organism-based; conditions: in vivo, other
# Amaranthus tuberculatus [13] = assay: Herbicidal activity against Amaranthus tuberculatus at 0.84 kg/ha applied using mixing wheel cultivator; type: functional
# Urochloa platyphylla [14] = assay: Herbicidal activity against Urochloa platyphylla at 0.42 kg/ha applied using mixing wheel cultivator; type: functional
# Urochloa platyphylla [15] = assay: Herbicidal activity against Urochloa platyphylla at 0.84 kg/ha applied using mixing wheel cultivator; type: functional
# Sesamum indicum [16] = assay: Phytotoxicity against Sesamum indicum (sesame) plant assessed as stunt in growth at 1.4 kg/ha formulated as prowl H2O applied using mixing wheel cultivator (reference value: 0%); type: organism-based; conditions: in vivo, other
# Sesamum indicum [17] = assay: Phytotoxicity against Sesamum indicum (sesame) plant assessed as stunt in growth at 0.56 kg/ha formulated as prowl EC applied using mixing wheel cultivator (reference value: 0%); type: organism-based; conditions: in vivo, other
# Amaranthus tuberculatus [18] = assay: Herbicidal activity against Amaranthus tuberculatus at 1.12 kg/ha formulated as prowl EC applied using mixing wheel cultivator; type: functional
# Urochloa platyphylla [19] = assay: Herbicidal activity against Urochloa platyphylla at 0.84 kg/ha formulated as prowl H2O applied using mixing wheel cultivator; type: functional
# Sesamum indicum [20] = assay: Phytotoxicity against Sesamum indicum (sesame) plant assessed as stunt in growth at 0.84 kg/ha formulated as prowl H2O applied using mixing wheel cultivator (reference value: 0%); type: organism-based; conditions: in vivo, other
# Sesamum indicum [21] = assay: Phytotoxicity against Sesamum indicum (sesame) plant assessed as sesame stand at 1.12 kg/ha formulated as prowl H2O applied using mixing wheel cultivator relative to control; type: organism-based; conditions: in vivo, other
# Sesamum indicum [22] = assay: Phytotoxicity against Sesamum indicum (sesame) plant assessed as stunt in growth at 2.24 kg/ha formulated as prowl EC applied using mixing wheel cultivator (reference value: 0%); type: organism-based; conditions: in vivo, other
# Amaranthus tuberculatus [23] = assay: Herbicidal activity against Amaranthus tuberculatus at 1.4 kg/ha formulated as prowl H2O applied using mixing wheel cultivator; type: functional
# Sesamum indicum [24] = assay: Phytotoxicity against Sesamum indicum (sesame) plant assessed as sesame stand at 0.56 kg/ha formulated as prowl EC applied using mixing wheel cultivator relative to control; type: organism-based; conditions: in vivo, other
# Urochloa platyphylla [25] = assay: Herbicidal activity against Urochloa platyphylla at 0.56 kg/ha formulated as prowl EC applied using mixing wheel cultivator; type: functional
# Urochloa platyphylla [26] = assay: Herbicidal activity against Urochloa platyphylla at 1.12 kg/ha formulated as prowl EC applied using mixing wheel cultivator; type: functional
# Sesamum indicum [27] = assay: Phytotoxicity against Sesamum indicum (sesame) plant assessed as yield at 0.56 kg/ha formulated as prowl EC applied using mixing wheel cultivator (reference value: 333 kg/ha); type: organism-based; conditions: in vivo, other
# Sesamum indicum [28] = assay: Phytotoxicity against Sesamum indicum (sesame) plant assessed as yield at 2.24 kg/ha formulated as prowl EC applied using mixing wheel cultivator (reference value: 333 kg/ha); type: organism-based; conditions: in vivo, other
# Amaranthus tuberculatus [29] = assay: Herbicidal activity against Amaranthus tuberculatus at 0.56 kg/ha formulated as prowl EC applied using mixing wheel cultivator; type: functional
# Sesamum indicum [30] = assay: Phytotoxicity against Sesamum indicum (sesame) plant assessed as yield at 1.12 kg/ha formulated as prowl H2O applied using mixing wheel cultivator (reference value: 333 kg/ha); type: organism-based; conditions: in vivo, other
# Sesamum indicum [31] = assay: Phytotoxicity against Sesamum indicum (sesame) plant assessed as sesame stand at 1.12 kg/ha formulated as prowl EC applied using mixing wheel cultivator relative to control; type: organism-based; conditions: in vivo, other
# Urochloa platyphylla [32] = assay: Herbicidal activity against Urochloa platyphylla at 1.12 kg/ha formulated as prowl H2O applied using mixing wheel cultivator; type: functional
# Sesamum indicum [33] = assay: Phytotoxicity against Sesamum indicum (sesame) plant assessed as Sesame stand at 1.4 kg/ha formulated as prowl H2O applied using mixing wheel cultivator relative to control; type: organism-based; conditions: in vivo, other
# Amaranthus tuberculatus [34] = assay: Herbicidal activity against Amaranthus tuberculatus at 0.84 kg/ha formulated as prowl H2O applied using mixing wheel cultivator; type: functional
# Sesamum indicum [35] = assay: Phytotoxicity against Sesamum indicum (sesame) plant assessed as yield at 1.4 kg/ha formulated as prowl H2O applied using mixing wheel cultivator (reference value: 333 kg/ha); type: organism-based; conditions: in vivo, other
# Sesamum indicum [36] = assay: Phytotoxicity against Sesamum indicum (sesame) plant assessed as stunt in growth at 1.12 kg/ha formulated as prowl H2O applied using mixing wheel cultivator (reference value: 0%); type: organism-based; conditions: in vivo, other
# Sesamum indicum [37] = assay: Phytotoxicity against Sesamum indicum (sesame) plant assessed as yield at 0.84 kg/ha formulated as prowl H2O applied using mixing wheel cultivator (reference value: 333 kg/ha); type: organism-based; conditions: in vivo, other
# Sesamum indicum [38] = assay: Phytotoxicity against Sesamum indicum (sesame) plant assessed as yield at 1.12 kg/ha formulated as prowl EC applied using mixing wheel cultivator (reference value: 333 kg/ha); type: organism-based; conditions: in vivo, other
# Amaranthus tuberculatus [39] = assay: Herbicidal activity against Amaranthus tuberculatus at 2.24 kg/ha formulated as prowl EC applied using mixing wheel cultivator; type: functional
# Sesamum indicum [40] = assay: Phytotoxicity against Sesamum indicum (sesame) plant assessed as sesame stand at 2.24 kg/ha formulated as prowl EC applied using mixing wheel cultivator relative to control; type: organism-based; conditions: in vivo
# Urochloa platyphylla [41] = assay: Herbicidal activity against Urochloa platyphylla at 2.24 kg/ha formulated as prowl EC applied using mixing wheel cultivator; type: functional
# Sesamum indicum [42] = assay: Phytotoxicity against Sesamum indicum (sesame) plant assessed as sesame stand at 0.84 kg/ha formulated as prowl H2O applied using mixing wheel cultivator relative to control; type: organism-based; conditions: in vivo, other
# Sesamum indicum [43] = assay: Phytotoxicity against Sesamum indicum (sesame) plant assessed as stunt in growth at 1.12 kg/ha formulated as prowl EC applied using mixing wheel cultivator (reference value: 0%); type: organism-based; conditions: in vivo, other
# Urochloa platyphylla [44] = assay: Herbicidal activity against Urochloa platyphylla at 1.4 kg/ha formulated as prowl H2O applied using mixing wheel cultivator; type: functional
# Amaranthus tuberculatus [45] = assay: Herbicidal activity against Amaranthus tuberculatus at 1.12 kg/ha formulated as prowl H2O applied using mixing wheel cultivator; type: functional
smiles,measurement,setting,value
C=C(C)CN(CC)c1c([N+](=O)[O-])cc(C(F)(F)F)cc1[N+](=O)[O-] [ETHALFLURALIN],Crop_yield,Sesamum indicum [1],527 kg/ha
same,Activity,Amaranthus tuberculatus [2],82%
same,Activity,Urochloa platyphylla [3],97%
same,Activity,Sesamum indicum [4],52%
same,Activity,Amaranthus tuberculatus [5],93%
same,Activity,Sesamum indicum [6],2%
same,Crop_yield,Sesamum indicum [7],428 kg/ha
same,Activity,Sesamum indicum [8],78%
same,Activity,Sesamum indicum [9],4%
same,Activity,Sesamum indicum [10],4%
same,Activity,Sesamum indicum [11],95%
same,Crop_yield,Sesamum indicum [12],143 kg/ha
same,Activity,Amaranthus tuberculatus [13],92%
same,Activity,Urochloa platyphylla [14],69%
same,Activity,Urochloa platyphylla [15],95%
CCC(CC)Nc1c([N+](=O)[O-])cc(C)c(C)c1[N+](=O)[O-] [PENDIMETHALIN],Activity,Sesamum indicum [16],14%
same,Activity,Sesamum indicum [17],3%
same,Activity,Amaranthus tuberculatus [18],74%
same,Activity,Urochloa platyphylla [19],71%
same,Activity,Sesamum indicum [20],0%
same,Activity,Sesamum indicum [21],53%
same,Activity,Sesamum indicum [22],16%
same,Activity,Amaranthus tuberculatus [23],83%
same,Activity,Sesamum indicum [24],80%
same,Activity,Urochloa platyphylla [25],63%
same,Activity,Urochloa platyphylla [26],83%
same,Crop_yield,Sesamum indicum [27],367 kg/ha
same,Crop_yield,Sesamum indicum [28],233 kg/ha
same,Activity,Amaranthus tuberculatus [29],85%
same,Crop_yield,Sesamum indicum [30],288 kg/ha
same,Activity,Sesamum indicum [31],55%
same,Activity,Urochloa platyphylla [32],80%
same,Activity,Sesamum indicum [33],38%
same,Activity,Amaranthus tuberculatus [34],96%
same,Crop_yield,Sesamum indicum [35],240 kg/ha
same,Activity,Sesamum indicum [36],4%
same,Crop_yield,Sesamum indicum [37],534 kg/ha
same,Crop_yield,Sesamum indicum [38],382 kg/ha
same,Activity,Amaranthus tuberculatus [39],90%
same,Activity,Sesamum indicum [40],27%
same,Activity,Urochloa platyphylla [41],85%
same,Activity,Sesamum indicum [42],90%
same,Activity,Sesamum indicum [43],3%
same,Activity,Urochloa platyphylla [44],73%
same,Activity,Amaranthus tuberculatus [45],84%
CCCN(CCC)c1c([N+](=O)[O-])cc(C(F)(F)F)cc1[N+](=O)[O-] [TRIFLURALIN],Crop_yield,Sesamum indicum [1],342 kg/ha
same,Activity,Amaranthus tuberculatus [2],90%
same,Activity,Urochloa platyphylla [3],96%
same,Activity,Sesamum indicum [4],67%
same,Activity,Amaranthus tuberculatus [5],92%
same,Activity,Sesamum indicum [6],2%
same,Crop_yield,Sesamum indicum [7],587 kg/ha
same,Activity,Sesamum indicum [8],76%
same,Activity,Sesamum indicum [9],0%
same,Activity,Sesamum indicum [10],4%
same,Activity,Sesamum indicum [11],99%
same,Crop_yield,Sesamum indicum [12],406 kg/ha
same,Activity,Amaranthus tuberculatus [13],85%
same,Activity,Urochloa platyphylla [14],86%
same,Activity,Urochloa platyphylla [15],91%

# From ChEMBL document CHEMBL3045858, “Weed control and sesame (Sesamum indicum L.) response to preplant incorporated herbicides and method of incorporation” (Crop Prot, 2007)
